Measured values as given in patent US20260364138A1, “ENRICHED ASPARAGUS RACEMOSUS ROOT COMPOSITION AND PROCESS FOR PREPARATION THEREOF” (LAILA NUTRA PRIVATE LIMITED, priority 2023, published 2026).

What was measured:
[1] = test system: Letrozole-induced PCOS in female Sprague Dawley rats; assay: Oral glucose tolerance test (OGTT) in letrozole-induced PCOS rats; format: in vivo; conditions: mean ± SD, n = 7, 20 mg/kg daily days 22-48 after letrozole induction, letrozole group 1 mg/kg without test item, day 49
From the text: Evaluation of Asparagus racemosus synergistic enriched extract compositions (comp-26, comp-27, comp-28 and 90% aqueous ethanol extract (AR-2) supplementation in letrozole-induced PCOS in female Sprague Dawley rats: Oral glucose tolerance test (OGTT): OGTT measures circulatory glucose levels following glucose ingestion, and this test is widely used as an indicator of insulin resistance. PCOS is known to cause metabolic dysfunctions, including insulin resistance. Letrozole-induced rats show impaired glucose tolerance and increased blood glucose in circulation, which closely mimics the clinical features of glucose intolerance or insulin resistance in PCOS.
Area Under the Curve (AUC) was calculated using serum glucose concentration Vs. time (in min). The AUC value was increased in letrozole-induced (G2) rats when compared with the Vehicle control (G1) rats, indicating impaired glucose tolerance or increased insulin resistance.
(§1) Following a 7-day acclimatization period, female Sprague Dawley rats (age: 10-12 weeks, body weight 250-300 g) were randomly assigned to six groups (n=7): vehicle control (G1), Letrozole (G2; 1 mg/kg), AR-2 (G3; 20 mg/kg), Comp-26 (G4; 20 mg/kg), Comp-27 (G5; 20 mg/kg), and Comp-28 (G6; 20 mg/kg).
The study was performed in two phases i.e., the induction and supplementation phases. […]

[2] = test system: Letrozole-induced PCOS in female Sprague Dawley rats; assay: Serum 17β-estradiol in letrozole-induced PCOS rats; format: in vivo; conditions: mean ± SD, n = 7; 20 mg/kg daily after letrozole induction; letrozole group 1 mg/kg; day 48
Experimental: as §1
(§2) The study was performed in two phases i.e., the induction and supplementation phases. In the induction phase, all the animals, except for G1, were gavaged with letrozole to induce PCOS for 21 days. In the supplementation phase (from days 22 to 48), all rats were supplemented once daily with either the vehicle or one of the test items. An oral glucose tolerance test (OGTT) was performed on day 49 in overnight fasted rats. Blood samples were collected on day 48. The serum was separated by centrifuging the blood samples at 3200×g for 15 minutes at 4 °C and stored at −80 °C in aliquots for biomarker analysis. On day 50, all rats were euthanized using CO2 asphyxiation, and their ovaries were collected. The ovaries were fixed in 10% normal buffered formalin for histopathology examination. The fixed tissues were paraffin-embedded, sectioned (5-7 μm) using a microtome, and stained with hematoxylin-eosin following the standard protocols. The stained tissue sections were examined at 10× magnification under a light microscope (Carl Zeiss, Germany).

[3] = test system: Letrozole-induced PCOS in female Sprague Dawley rats; assay: Serum testosterone in letrozole-induced PCOS rats; format: in vivo; conditions: mean ± SD, n = 7; 20 mg/kg daily after letrozole induction; letrozole group 1 mg/kg; day 48
Experimental: as §1, §2

[4] = test system: estrogen receptor alpha phosphorylated at Serine 118 position (pER-α); assay: Evaluation of estrogen-receptor alpha (ER-α) phosphorylation by Western blot assay (normalized pER-α expression) in MCF-7 cells; format: cell-based, Human; conditions: 0.2 μg/mL, MCF-7, 4 h; for pER-α expression (normalized): Table 3 (vehicle control 0.28); for activation at 0.2 µg/mL: Homo sapiens, MCF7, read-out: % increase of pER-α (from vehicle control)
Experimental: The four compounds of Asparagus racemosus root Shatavarin I, dehydroshatavarin I, shatavarin IV, and shatavarin IX, and their combinations were evaluated for their ability to enhance the pER-α (estrogen receptor alpha phosphorylated at Serine 118 position) expression in a human breast tumor cell line, MCF-7, and the results are presented in Table 3. pER-α represents the active form of the hormone receptor.
Human MCF-7 cells (ATCC Cat #HTB-22; 5×10^5 cells/well in 3 mL) were seeded in 6-well cell culture plates and maintained in DMEM medium containing 10% FBS at 37 °C in a humidified atmosphere of 5% CO2. After 48 hours of seeding, cells were washed twice with serum-free DMEM medium (without phenol red) and maintained in the same media for another 24 hours. Cells were treated with different test samples (0.2 μg/mL) in serum-free DMEM medium and incubated for 4 hours at 37 °C in a CO2 incubator. The untreated cells served as a vehicle control.
Western blot: After the incubation, cell culture plates were placed on an ice tray and washed twice with cold 1×PBS. Eighty microliters of lysis buffer (10 mM Tris-HCl pH 7.4, 150 mM NaCl, 1 mM EDTA, 1 mM [COMPOUND LEFT OUT], 10 μg/mL Aprotinin, 10 μg/mL Leupeptin, 1% Triton X-100, 1 mM NaF, 1 mM Na3VO4, 0.5% Sodium deoxycholate, and 1 μM Pepstatin) was added to each well and sonicated for 30 seconds. Following homogenization, samples were centrifuged at 16128×g for 10 minutes at 4 °C to sediment unbroken cells and nuclei. Supernatant was collected, and protein was quantified using a Pierce BCA protein assay kit (Thermo Scientific Cat #23225). SDS-PAGE was performed for the protein samples, and resolved proteins were transferred onto nitrocellulose membrane using the wet blotting method. Briefly, 10 μg of protein was loaded onto acrylamide gel (7.5% resolving) and ran at 100V for approximately 1 hour 40 minutes. At the end of the run, proteins were transferred to the nitrocellulose membrane by placing transfer system at 4 °C chamber (100V for 2 hours). After the transfer, the membrane was washed in 0.1M Tris-buffered saline containing 0.05% Tween20 (TBST) and blocked in Superblock blocking buffer (Thermo Scientific Cat #37535) with constant agitation for 30 minutes. The membrane was incubated with primary antibodies recognizing phospho-ER-α (Phosphorylation site: Ser118) in TBST for 16 hours at 4 °C with agitation. The membrane was washed three times and incubated with peroxidase affiniPure goat anti-rabbit secondary antibody (Jackson ImmunoResearch Cat #111-035-045; 1:10000 dilution) for 1 hour at room temperature with agitation, followed by three times of washing in TBST for 5 minutes each. Immunoreactive bands were detected using a chemiluminescent substrate (Thermo Scientific Cat #34080) and images were captured using Bio-Rad Molecular imager (Model: ChemiDOC MP). Membrane was stripped of the phospho-ER-α antibody and re-probed with […] antibody (Sigma Chemical Co., USA; 1:10000 dilution) by incubating at room temperature for 2 hours and images were captured. The intensities of phospho-ER-α and actin protein bands were calculated using Carestream MI software and normalized. The normalized pER-α expression (in arbitrary units) was measured using the following formula: […]

[5] = test system: Cyclophosphamide-induced primary ovarian insufficiency in Sprague Dawley rats; assay: Cyclophosphamide-induced primary ovarian insufficiency in female Sprague Dawley rats, total follicular count; conditions: rat, in vivo
Experimental: Evaluation of Asparagus racemosus enriched extract compositions supplementation on total follicular count of female Sprague Dawley rats: Ovarian follicles contain oocytes and surrounded by granulosa cells. Four different types of follicles are observed in ovaries based on their development stages: primordial, primary, secondary, and tertiary (antral). The number of primordial follicles, which is the true ovarian reserve, is determined in the fetus and declines throughout life. However, the primordial follicles cannot be visualized by ultrasound due to their small size (<0.05 mm diameter). The antral or Graafian follicles are more easily identifiable by ultrasound when they reach 2 mm in diameter. It is recommended that a follicular count needs to be performed in the early follicular phase of the menstrual cycle. However, considering the intracycle fluctuation of ovarian reserve, a follicular count may be performed at any point in the menstrual cycle. […]
Example 28: In-vivo efficacy of AR-1 and Comp-1 in mitigating Cyclophosphamide-induced primary ovarian insufficiency in Sprague Dawley rats. […] Twenty randomly selected fields were analysed for primordial, primary, antral, […], and atretic follicles, and the average of total number of follicles present in each tissue section was calculated.

Row | Molecule | pER-α expression (normalized) [4] [arbitrary units] | activation at 0.2 µg/mL ([4]; markers, Table 3) [%] | other results
1 | N#Cc1ccc(C(c2ccc(C#N)cc2)n2cncn2)cc1 [Letrozole] | – | – | AUC (serum glucose, OGTT) [1]: 21030 ± 4007 mg/dL/min; AUC (serum glucose, OGTT) ([1]; listed as letrozole): increased; 17β-Estradiol concentration (serum) [2]: 32.97 ± 13.89 pg/mL; Testosterone concentration (serum) [3]: 3.18 ± 1.16 pg/mL
2 | dehydroshatavarin I | 0.45 | – | % increase of pER-α (from vehicle control) ([4]; markers, Table 3): 60.71%
3 | CC1CCC2(OC1)OC1CC3C4CCC5CC(OC6OC(CO)C(OC7OC(CO)C(O)C(O)C7O)C(O)C6OC6OC(CO)C(O)C(O)C6O)CCC5(C)C4CCC3(C)C1C2C (stereo not shown) [Shatavarin IX] | 0.38 | 35.7 | –
4 | O=P1(N(CCCl)CCCl)NCCCO1 (stereo not shown) [Cyclophosphamide] | – | – | Average total follicular count [5]: 5.63 per section
5 | CC1CCC2(OC1)OC1CC3C4CCC5CC(OC6OC(CO)C(OC7OC(C)C(O)C(O)C7O)C(O)C6OC6OC(CO)C(O)C(O)C6O)CCC5(C)C4CCC3(C)C1C2C (stereo not shown) [Shatavarin IV] | 0.40 | 42.9 | –
6 | CC(CCC1(O)OC2CC3C4CCC5CC(OC6OC(CO)C(OC7OC(C)C(O)C(O)C7O)C(O)C6OC6OC(CO)C(O)C(O)C6O)CCC5(C)C4CCC3(C)C2C1C)COC1OC(CO)C(O)C(O)C1O (stereo not shown) [Shatavarin I] | 0.34 | 21.4 | –
